Consider 13 compounds from US11739098B2 (BRISTOL-MYERS SQUIBB COMPANY, priority 2017, dated 2023).

Structures can show the parent of a compound that is named as a salt.

Holding throughout (format): cell-based
One test deals with T1, human TLR7 (Homo sapiens, UniProt Q9NYK1).
T1 construct: host or cells: HEK-Blue cells (HEK293-derived reporter line)
T1 sequence (Q9NYK1 27-1049): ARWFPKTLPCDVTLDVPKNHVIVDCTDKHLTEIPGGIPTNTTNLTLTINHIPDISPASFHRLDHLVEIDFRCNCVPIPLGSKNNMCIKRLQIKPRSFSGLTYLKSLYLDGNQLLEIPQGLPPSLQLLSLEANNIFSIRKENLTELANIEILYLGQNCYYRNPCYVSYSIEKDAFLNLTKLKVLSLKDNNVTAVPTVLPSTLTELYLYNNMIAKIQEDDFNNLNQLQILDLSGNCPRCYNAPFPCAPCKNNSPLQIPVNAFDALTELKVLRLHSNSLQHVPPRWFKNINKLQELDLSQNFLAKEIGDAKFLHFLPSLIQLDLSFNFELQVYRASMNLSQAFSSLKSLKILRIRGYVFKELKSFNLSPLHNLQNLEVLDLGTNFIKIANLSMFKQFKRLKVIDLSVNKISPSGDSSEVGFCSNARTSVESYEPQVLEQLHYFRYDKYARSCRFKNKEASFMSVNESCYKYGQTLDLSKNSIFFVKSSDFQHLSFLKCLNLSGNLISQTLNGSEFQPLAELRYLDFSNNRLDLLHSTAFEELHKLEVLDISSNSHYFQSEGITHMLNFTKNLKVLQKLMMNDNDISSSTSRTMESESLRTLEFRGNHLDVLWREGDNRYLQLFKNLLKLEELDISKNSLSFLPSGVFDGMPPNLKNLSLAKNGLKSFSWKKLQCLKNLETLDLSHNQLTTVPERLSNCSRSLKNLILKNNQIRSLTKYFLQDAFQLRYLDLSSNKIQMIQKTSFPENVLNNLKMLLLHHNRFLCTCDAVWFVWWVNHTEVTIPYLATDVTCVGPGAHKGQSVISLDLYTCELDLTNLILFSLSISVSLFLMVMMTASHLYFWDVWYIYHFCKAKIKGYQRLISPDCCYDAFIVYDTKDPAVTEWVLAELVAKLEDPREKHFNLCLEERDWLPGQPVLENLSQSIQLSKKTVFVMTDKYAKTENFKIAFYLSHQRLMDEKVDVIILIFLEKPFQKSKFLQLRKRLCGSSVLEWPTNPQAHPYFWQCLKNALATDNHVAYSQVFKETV
The test is described as follows: TLR7 inhibition reporter assay (HEK-Blue cells, SEAP reporter, gardiquimod stimulation). The note with it: HEK-Blue cells overexpressing human TLR7, SEAP reporter, gardiquimod 7.5 μM. The method, boiled down: (§1)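 Cells seeded per well (15000 TLR7, 20,000 TLR8, 25,000 TLR9); compound added over 0.05 nM–50 μM for 30 min at room temperature; agonist added (TLR7 gardiquimod 7.5 μM, TLR8 R848 15.9 μM, TLR9 ODN2006 5 nM); 22 h at 37 °C; SEAP measured; percent inhibition calculated.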

The next test deals with T2, human TLR8 (Homo sapiens, UniProt Q9NR97).
T2 construct: host or cells: HEK-Blue cells (HEK293-derived reporter line)
T2 sequence (Q9NR97 27-1041): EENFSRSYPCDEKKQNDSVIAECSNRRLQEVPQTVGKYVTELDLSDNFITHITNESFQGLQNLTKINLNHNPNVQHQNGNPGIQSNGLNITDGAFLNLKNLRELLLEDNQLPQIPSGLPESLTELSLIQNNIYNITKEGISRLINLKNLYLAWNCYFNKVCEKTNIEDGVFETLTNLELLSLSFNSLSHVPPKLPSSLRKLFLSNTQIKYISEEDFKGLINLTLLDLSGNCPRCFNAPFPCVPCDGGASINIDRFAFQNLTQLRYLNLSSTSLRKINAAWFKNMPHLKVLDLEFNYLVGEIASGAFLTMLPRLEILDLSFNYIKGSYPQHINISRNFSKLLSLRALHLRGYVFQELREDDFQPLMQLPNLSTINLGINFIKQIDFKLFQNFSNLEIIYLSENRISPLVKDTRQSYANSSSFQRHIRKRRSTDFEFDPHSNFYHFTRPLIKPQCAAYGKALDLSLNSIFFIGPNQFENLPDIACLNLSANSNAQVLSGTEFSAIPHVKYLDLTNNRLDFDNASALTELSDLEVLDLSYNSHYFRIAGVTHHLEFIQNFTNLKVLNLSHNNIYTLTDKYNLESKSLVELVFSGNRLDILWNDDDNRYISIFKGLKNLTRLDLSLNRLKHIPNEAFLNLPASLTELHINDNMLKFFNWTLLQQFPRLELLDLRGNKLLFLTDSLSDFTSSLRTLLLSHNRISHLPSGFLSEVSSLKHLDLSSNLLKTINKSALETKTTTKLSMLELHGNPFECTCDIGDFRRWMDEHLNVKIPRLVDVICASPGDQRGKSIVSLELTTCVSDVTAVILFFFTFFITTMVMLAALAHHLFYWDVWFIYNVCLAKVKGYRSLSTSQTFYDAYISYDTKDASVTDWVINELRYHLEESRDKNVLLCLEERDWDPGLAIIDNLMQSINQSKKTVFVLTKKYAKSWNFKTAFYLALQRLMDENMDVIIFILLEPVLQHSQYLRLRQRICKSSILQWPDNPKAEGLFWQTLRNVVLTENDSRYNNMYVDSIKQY
The test is described as follows: TLR8 inhibition reporter assay (HEK-Blue cells, SEAP reporter, R848 stimulation). The note with it: HEK-Blue cells overexpressing human TLR8, SEAP reporter, R848 15.9 μM. The method, boiled down:
as §1

Another test concerns the target T3, human TLR9 (Homo sapiens, UniProt Q9NR96).
T3 construct: host or cells: HEK-Blue cells (HEK293-derived reporter line)
T3 sequence (Q9NR96 26-1032): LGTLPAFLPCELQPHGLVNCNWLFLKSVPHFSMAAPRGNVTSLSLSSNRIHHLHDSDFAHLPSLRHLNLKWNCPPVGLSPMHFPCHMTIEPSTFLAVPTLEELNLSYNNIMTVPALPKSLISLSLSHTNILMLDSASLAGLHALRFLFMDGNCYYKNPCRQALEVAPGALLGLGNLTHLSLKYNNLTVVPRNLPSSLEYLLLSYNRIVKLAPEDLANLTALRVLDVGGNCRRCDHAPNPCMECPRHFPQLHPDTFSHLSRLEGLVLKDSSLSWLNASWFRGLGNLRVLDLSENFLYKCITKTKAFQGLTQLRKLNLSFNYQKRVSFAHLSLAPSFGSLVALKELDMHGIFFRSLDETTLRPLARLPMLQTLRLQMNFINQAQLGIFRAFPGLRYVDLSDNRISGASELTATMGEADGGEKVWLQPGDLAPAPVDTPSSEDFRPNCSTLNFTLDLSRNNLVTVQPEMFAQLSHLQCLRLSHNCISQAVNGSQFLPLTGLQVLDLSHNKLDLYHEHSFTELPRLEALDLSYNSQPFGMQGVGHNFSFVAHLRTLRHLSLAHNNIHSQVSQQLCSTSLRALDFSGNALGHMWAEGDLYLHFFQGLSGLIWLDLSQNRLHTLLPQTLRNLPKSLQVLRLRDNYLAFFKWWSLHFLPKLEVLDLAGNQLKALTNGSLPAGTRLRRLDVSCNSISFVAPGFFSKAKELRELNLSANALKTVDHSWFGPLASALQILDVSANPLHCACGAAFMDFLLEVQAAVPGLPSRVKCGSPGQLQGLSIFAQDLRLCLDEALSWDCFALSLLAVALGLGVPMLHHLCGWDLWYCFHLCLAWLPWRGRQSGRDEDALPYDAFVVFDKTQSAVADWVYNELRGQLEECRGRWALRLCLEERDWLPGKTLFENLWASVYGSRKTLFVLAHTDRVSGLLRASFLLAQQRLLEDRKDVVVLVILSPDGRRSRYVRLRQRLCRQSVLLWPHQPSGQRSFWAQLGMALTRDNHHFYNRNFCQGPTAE
As to the kind of experiment: TLR9 inhibition reporter assay (HEK-Blue cells, SEAP reporter, ODN2006 stimulation). As to conditions: HEK-Blue cells overexpressing human TLR9, SEAP reporter, ODN2006 5 nM. The method, boiled down: as §1
For orientation: Reporter assays use an easily measured gene product as a stand-in for the process of interest.

Usually IC50 stands for the midpoint of a concentration-inhibition curve. Consider `CC(C)c1c(-c2cc(CO)c3nnnn3c2)[nH]c2ccc(C3CCN(C4COC4)CC3)cc12` [Example 738, (6-(3-isopropyl-5-(1-(oxetan-3-yl)piperidin-4-yl)-1H-indol-2-yl)tetrazolo[1,5-a]pyridin-8-yl)methanol], for which the IC50 is under 100 nM on human TLR7, under 100 nM at human TLR8 and 1000 to 50000 nM against human TLR9.

With `Cc1c(-c2[nH]c3ccc(C4CCN(C5COC5)CC4)cc3c2C(C)C)cn2nnnc2c1C` [Example 739, 6-(3-isopropyl-5-(1-(oxetan-3-yl)piperidin-4-yl)-1H-indol-2-yl)-7,8-dimethyltetrazolo[1,5-a]pyridine], the half-maximal inhibitory concentration (IC50) at human TLR7 was under 100 nM; at human TLR8, under 100 nM; at human TLR9, 1000 to 50000 nM.

Consider `Cc1cc(-c2[nH]c3ccc(C4CCN(C5COC5)CC4)cc3c2C(C)C)c(C)n2nnnc12` [Example 740, 6-(3-isopropyl-5-(1-(oxetan-3-yl)piperidin-4-yl)-1H-indol-2-yl)-5,8-dimethyltetrazolo[1,5-a]pyridine], for which the IC50 against human TLR7 was 100 to 1000 nM; at human TLR8 it was under 100 nM; against human TLR9, 1000 to 50000 nM.

In the case of `Cc1cc(-c2[nH]c3ccc(C4CCN(C5COC5)CC4)cc3c2C(C)C)cn2nnnc12` [Example 741, 6-(3-isopropyl-5-(1-(oxetan-3-yl)piperidin-4-yl)-1H-indol-2-yl)-8-methyltetrazolo[1,5-a]pyridine], the figures for the concentration for half-maximal inhibition (IC50) on human TLR7, against human TLR8 and against human TLR9 were under 100 nM, under 100 nM and 1000 to 50000 nM, respectively.

For `Cc1cc2nnnn2cc1-c1[nH]c2ccc(C3CCN(C4COC4)CC3)cc2c1C(C)C` [Example 742, 6-(3-isopropyl-5-(1-(oxetan-3-yl)piperidin-4-yl)-1H-indol-2-yl)-7-methyltetrazolo[1,5-a]pyridine], the values for the 50% inhibitory concentration (IC50) against human TLR7, on human TLR8 and against human TLR9 were under 100 nM, 100 to 1000 nM and 1000 to 50000 nM, respectively.

With `Cc1nnn2ccc(-c3[nH]c4ccc(C5CCN(C6COC6)CC5)cc4c3C(C)C)cc12` [Example 743, 5-(3-isopropyl-5-(1-(oxetan-3-yl)piperidin-4-yl)-1H-indol-2-yl)-3-methyl-[1,2,3]triazolo[1,5-a]pyridine], the IC50 is under 100 nM against human TLR7, under 100 nM against human TLR8 and 1000 to 50000 nM against human TLR9.

Regarding `Cc1cc(-c2[nH]c3ccc(C4CCN(C5COC5)CC4)cc3c2C(C)C)cc2cnnn12` [Example 744, 5-(3-isopropyl-5-(1-(oxetan-3-yl)piperidin-4-yl)-1H-indol-2-yl)-7-methyl-[1,2,3]triazolo[1,5-a]pyridine], the IC50 against human TLR7 was under 100 nM; on human TLR8 it was under 100 nM; against human TLR9, 1000 to 50000 nM.

Consider `Cc1cc(-c2[nH]c3ccc(C4CCN(CC(C)(C)O)CC4)cc3c2C(C)C)cn2nnnc12` [Example 745, 1-(4-(3-isopropyl-2-(8-methyltetrazolo[1,5-a]pyridin-6-yl)-1H-indol-5-yl)piperidin-1-yl)-2-methylpropan-2-ol, TFA], for which the results for the half-maximal inhibitory concentration (IC50) against human TLR7, against human TLR8 and against human TLR9 were under 100 nM, under 100 nM and 1000 to 50000 nM, respectively.

Regarding `CC(C)c1c(-c2ccc3ncnn3n2)[nH]c2ccc(C3CCN(CC(C)(C)O)CC3)cc12` [Example 746, 1-(4-(2-([1,2,4]triazolo[1,5-b]pyridazin-6-yl)-3-isopropyl-1H-indol-5-yl)piperidin-1-yl)-2-methylpropan-2-ol], the concentration for half-maximal inhibition (IC50) was under 100 nM on human TLR7, under 100 nM against human TLR8 and 1000 to 50000 nM at human TLR9.

On to `Cc1c(-c2[nH]c3ccc(C4CCN(CC(C)(C)O)CC4)cc3c2C(C)C)nn2ncnc2c1C` [Example 747, 1-(4-(2-(7,8-dimethyl-[1,2,4]triazolo[1,5-b]pyridazin-6-yl)-3-isopropyl-1H-indol-5-yl)piperidin-1-yl)-2-methylpropan-2-ol], for which the half-inhibitory concentration (IC50) against human TLR7 was under 100 nM; on human TLR8, under 100 nM; at human TLR9, 1000 to 50000 nM.

For `COc1c(C)c(-c2[nH]c3ccc(C4CCN(CC(C)(C)O)CC4)cc3c2C(C)C)nn2ncnc12` [Example 748, 1-(4-(3-isopropyl-2-(8-methoxy-7-methyl-[1,2,4]triazolo[1,5-b]pyridazin-6-yl)-1H-indol-5-yl)piperidin-1-yl)-2-methylpropan-2-ol], the IC50 against human TLR7 is under 100 nM; against human TLR8 it was under 100 nM; on human TLR9, 1000 to 50000 nM.

In the case of `COc1cc(-c2[nH]c3ccc(C4CCN(CC(C)(C)O)CC4)cc3c2C(C)C)nn2ncnc12` [Example 749, 1-(4-(3-isopropyl-2-(8-methoxy-[1,2,4]triazolo[1,5-b]pyridazin-6-yl)-1H-indol-5-yl)piperidin-1-yl)-2-methylpropan-2-ol], the IC50 against human TLR7 was under 100 nM; on human TLR8, under 100 nM; at human TLR9 it was 1000 to 50000 nM.

In the case of `CC(C)c1c(-c2cn(C)c3ncccc23)[nH]c2ccc(C3CCN(CC(C)(C)O)CC3)cc12` [Example 750, 1-(4-(3-isopropyl-2-(1-methyl-1H-pyrrolo[2,3-b]pyridin-3-yl)-1H-indol-5-yl)piperidin-1-yl)-2-methylpropan-2-ol], the results for the half-maximal inhibitory concentration (IC50) against human TLR7, against human TLR8 and at human TLR9 were under 100 nM, under 100 nM and 1000 to 50000 nM, respectively.
